Reference: article PMC10564737, “Structure-based design of a phosphotyrosine-masked covalent ligand targeting the E3 ligase SOCS2” (Nature Communications, 2023)
Several values for one entry are separate records, joined by “and”; a condition that tells them apart may be missing. Identical values can stand only once.

Columns and labels:
SBC2 [1] = target: T1, SBC2 (Homo sapiens, UniProt O14508); assay: Surface plasmon resonance (SPR) with SBC2 immobilized on the chip; type: binding
T1 construct: SOCS2 (amino acids 32–198); His6 (N, cleaved yes); made in house; host or cells: E. coli BL21(DE3)
Text: (§1) First, we decided to optimize the N-terminal region of 1 while maintaining the N-methylamide group at the C-terminus. To generate analogs rapidly, we employed a solid phase synthesis using methyl indole AM resin. After Fmoc deprotection, the resin was loaded with Fmoc-Tyr (PO(OBzl)2)-OH[29]. Subsequent coupling with various commercially available carboxylic acids and cleavage with TFA allowed the rapid synthesis of N-methylcarboxamide phosphotyrosines (Supplementary Fig. 1). We introduced different substituents at the N-terminus to cover a range of physicochemical properties (e.g. alicyclic, heterocyclic, aromatic with electron-withdrawing and electron-donating groups) to maximize potential interactions (see Table 1 for representative examples). Binding affinities of the synthesized compounds for SOCS2 were measured via two orthogonal biophysical binding assays: (1) surface plasmon resonance (SPR) with SBC2 immobilized on the chip (Supplementary Fig. 7); and (2) ^19F ligand-observed displacement NMR assays, providing two orthogonal biophysical measurements of dissociation constants (KD)[29],[31]. We found an excellent correlation between the KD values measured via the two techniques (Table 1). Para-substituted benzyl moieties yielded the greatest contributions to binding affinity and there were only slight differences between electron-withdrawing groups such as a methyl ester and electron-donating such as methoxy group.
SPR experiments were performed using a Biacore S200 instrument (GE Healthcare) in 20 mM HEPES pH 7.5, 150 mM NaCl, 1 mM TCEP, 0.005% Tween20, 2% DMSO buffer at 10 °C. Biotinylated SBC2 was immobilized onto a chip surface (the final surface density of biotinylated SBC2 was ~3000–4000 RU). AviTagged-SBC was biotinylated using BirA enzyme as per manufacturer’s protocol (Avidity). Compounds were serially diluted in the running buffer and injected individually: contact time 60 s, flow rate 30 μL/min, dissociation time 150 s, using a stabilization period of 30 s and syringe wash (50% DMSO) between injections. Data analysis was carried out using Biacore Evaluation Software (GE Healthcare). All data were double-referenced for reference surface and blank injection. The processed sensograms were fit to a steady-state affinity using a 1:1 binding model for KD estimation.

SBC2 [2] = target: T1, SBC2; assay: 19F ligand-observed displacement (CPMG) NMR assay; type: binding; details: Table 1, n = 1
Text: as §1, with “We introduced different substituents at the N-terminus to cover a range of physicochemical properties (e.g. alicyclic, heterocyclic, aromatic with electron-withdrawing and electron-donating groups) to maximize potential interactions (see Table 1 for representative examples).” left out, “Para-substituted benzyl moieties yielded the greatest contributions to binding affinity and there were only slight differences between electron-withdrawing groups such as a methyl ester and electron-donating such as methoxy group.” left out
Experiments were performed using an Avance III 500 MHz Bruker spectrometer equipped with a 5 mm CPQCI 1H/19 F/13 C/15 N/D Z-GRD cryoprobe at 298 K as described previously. Spectra were recorded using 80 scans of a CPMG pulse sequence that attenuates broad resonances. […] All NMR data were processed and analyzed using TopSpin (Bruker). The dissociation constant was calculated as described previously.

[3] = target: GHR pY595 peptide (Homo sapiens) (UniProt P10912); details: cited from earlier work
SBC2 [4] = target: T1, SBC2; assay: Isothermal titration calorimetry (ITC), direct titration; type: binding; details: for Kd: ITC KD, direct ITC, 298 K
Procedure: Experiments were performed with ITC200 instrument (Malvern) in 100 mM HEPES pH 7.5, 50 mM NaCl, 0.5 mM TCEP at 298 K. The ITC titration consisted of 0.4 μl initial injection (discarded during data analysis) followed by 19 of 2 μl injections at 120 s interval between injections. 1 mM of the ligands in 2–4% DMSO were titrated into 100 μM SBC2. […] Binding data was subtracted from a control titration where ligand was titrated into buffer, and fitted using a one-set-of-site binding model to obtain dissociation constant (Kd), binding enthalpy (ΔH), and stoichiometry (N) using MicroCal PEAQ-ITC Analysis Software1.1.0.1262 and MicroCal ITC-ORIGIN Analysis Software 7.0 (Malvern).

[5] = Table 2, second-round library, n = 1

T1 sequence (O14508 32-198): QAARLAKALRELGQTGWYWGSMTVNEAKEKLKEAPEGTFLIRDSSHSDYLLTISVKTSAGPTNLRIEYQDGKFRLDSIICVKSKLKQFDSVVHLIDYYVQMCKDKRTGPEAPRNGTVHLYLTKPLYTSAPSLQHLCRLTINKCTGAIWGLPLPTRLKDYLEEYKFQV
T1 sequence (Q15370 1-104 partner limits assumed): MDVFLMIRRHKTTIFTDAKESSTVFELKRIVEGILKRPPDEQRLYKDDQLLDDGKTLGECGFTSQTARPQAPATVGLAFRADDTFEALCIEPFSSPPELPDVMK
T1 sequence (Q15369 17-112 partner limits assumed): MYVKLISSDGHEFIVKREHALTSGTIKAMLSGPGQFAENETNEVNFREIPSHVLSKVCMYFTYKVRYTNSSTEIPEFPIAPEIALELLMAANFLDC
Chain of GHR pY595 peptide (Homo sapiens) (P10912 whole entry, looked up, tested part not stated): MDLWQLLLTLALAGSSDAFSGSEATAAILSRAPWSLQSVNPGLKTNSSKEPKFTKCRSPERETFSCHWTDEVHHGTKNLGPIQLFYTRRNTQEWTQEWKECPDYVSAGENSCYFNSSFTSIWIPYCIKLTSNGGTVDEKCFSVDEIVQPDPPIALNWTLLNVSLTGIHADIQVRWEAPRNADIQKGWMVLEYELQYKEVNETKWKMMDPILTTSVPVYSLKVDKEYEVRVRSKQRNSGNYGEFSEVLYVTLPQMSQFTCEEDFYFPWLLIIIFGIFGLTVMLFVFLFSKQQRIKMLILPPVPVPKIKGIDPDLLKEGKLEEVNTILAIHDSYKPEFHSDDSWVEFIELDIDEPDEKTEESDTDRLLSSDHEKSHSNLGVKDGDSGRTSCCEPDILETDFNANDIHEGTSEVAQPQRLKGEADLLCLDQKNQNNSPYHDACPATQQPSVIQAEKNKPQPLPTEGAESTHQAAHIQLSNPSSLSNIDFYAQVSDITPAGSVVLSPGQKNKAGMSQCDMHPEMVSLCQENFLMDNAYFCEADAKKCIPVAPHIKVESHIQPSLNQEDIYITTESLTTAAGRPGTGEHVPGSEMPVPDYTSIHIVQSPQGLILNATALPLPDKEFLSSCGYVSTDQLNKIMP
Chain of SOCS2 SH2 (O14508 45-159): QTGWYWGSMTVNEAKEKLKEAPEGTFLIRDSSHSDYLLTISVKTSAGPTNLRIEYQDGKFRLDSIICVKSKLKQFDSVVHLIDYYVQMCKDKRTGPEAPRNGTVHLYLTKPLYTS

## CNC(=O)[C@H](Cc1ccc(OP(=O)(O)O)cc1)NC(=O)Cc1ccc(F)cc1 [Compound 5]
SBC2 [1]; Table 1, n = 1
  Kd: 49 µM
SBC2 [2]
  Kd: 32 µM

## SOCS2 SH2 (from UniProt O14508)
[3]
  Kd: 1.1 µM

## CNC(=O)[C@H](Cc1ccc(OP(=O)(O)O)cc1)NC(C)=O [Compound 1]
SBC2 [1]; Table 1, n = 1
  Kd: 269 µM
SBC2 [4]
  weaker binding than the full phosphorylated peptide: 100 fold
  Kd: 192 µM and 190 µM
SBC2 [2]
  Kd: 186 µM

## Cc1cccc(CNC(=O)[C@H](Cc2ccc(OP(=O)(O)O)cc2)NC(=O)Cc2ccc(F)cc2)c1 [Compound 10, (S)-4-(2-(2-(4-fluorophenyl)acetamido)-3-((3-methylbenzyl)amino)-3-oxopropyl)phenyl phosphate]
SBC2 [1]; SPR
  improvement of binding affinity compared to 5: 10 fold
SBC2 [1]; [5]
  Kd: 3.7 µM
SBC2 [4]
  ITC ΔG: -34 kJ/mol
  ITC −TΔS: -9.67 kJ/mol
  Kd: 1.1 µM

## C=CCc1cc(CNC(=O)[C@H](Cc2ccc(OP(=O)(O)O)cc2)NC(=O)Cc2ccc(F)cc2)ccc1F [Compound 13]
SBC2 [1]; [5]
  Kd: 2.4 µM
SBC2 [4]
  ITC ΔG: -36.6 kJ/mol
  ITC −TΔS: -6.78 kJ/mol
  Kd: 0.38 µM
